Test results as given in patent publication EP0446604A2, “Pyridine and related aza heterocycle derivatives as cardiovascular agents” (AMERICAN CYANAMID COMPANY, priority 1990, dated 1991).
Where a name gives a salt, the structure may show the parent alone.

Key:
[1] = tested on: Male mice of the Swiss Webster Strain; assay: Potassium chloride-induced arrhythmia in anesthetized mice (survival); format: in vivo; conditions: Mus musculus, iv, Dose = 10 mg/kg i.v.; potassium chloride 62.5 mg/kg i.v. bolus 5, 15 or 30 minutes after drug; observed 15 minutes; read-out: KCl #Mice Surviving #Mice Tested (converted)
Source text: (§1) Intravenous administration of high doses of calcium or potassium chloride in animals produces cardiac arrhythmias, cardiac fibrillation and cardiac arrest. Any agent that can prevent these events is considered an antiarrhythmic/antifibrillatory agent. (Meth. and Find Exptl. Clin Pharmacol.2:223-252(1980); Pharmacol, Ther. 24:401-433 (1984); Experimental Cardiac and Antiarrhythmic Drugs, L. Szekeres and Gy. J. Dapp, Akademiai Kiado Preso, Budapest, 9-448 (1971).)
(§2) The method employed is as follows: Male mice of the Swiss Webster Strain (Charles River, Wilmington, MA) weighing 25-35 g are anesthetized with ethyl carbamate (urethan) (1.5g/kg body weight i.p.). A 25-gauge needle attached to PE-20 tubing is inserted into a caudal vein for drug administration. The lead II ECG is recorded by needle electrodes placed subcutaneously in the limbs. All data is collected on a Gould Brush recorder. Animals are observed 5 minutes before drug administration. A 5, 15, or 30 minute period following drug administration is allowed before the bolus injection of calcium chloride, 200 mg/kg i.v. or potassium chloride, 62.5 mg/kg i.v. Control mice receive 4 ml/kg of 0.9% sodium chloride i.v. Mice are observed an additional 15 minutes for arrhythmias, fibrillation, survival or death. Any compound at a dose of less than 20 mg/kg i.v. that protects 3 out of 6 mice from cardiac death in either the potassium or calcium chloride test, is considered active.

[2] = tested on: Male mice of the Swiss Webster Strain; assay: Calcium chloride-induced arrhythmia in anesthetized mice (survival); format: in vivo; conditions: Mus musculus, iv, Dose = 10 mg/kg i.v.; calcium chloride 200 mg/kg i.v. bolus 5, 15 or 30 minutes after drug; observed 15 minutes; read-out: CaCl2 #Mice Surviving #Mice Tested (converted)
Source text: as §1, §2

[3] = target: T1, thromboxane synthetase enzyme (Rattus norvegicus, UniProt P49430); assay: Inhibition of thromboxane (TXB2) formation in washed rat platelets, TXB2 radioimmunoassay; format: biochemical, Okamoto-Aoki spontaneously hypertensive rats (SHR); conditions: Concentration 1x10^-4M, platelet suspension incubated 10 minutes at 37 °C
T1 construct: from tissue; host or cells: washed blood platelets from Okamoto-Aoki spontaneously hypertensive rats (SHR)
T1 sequence (P49430 1-533): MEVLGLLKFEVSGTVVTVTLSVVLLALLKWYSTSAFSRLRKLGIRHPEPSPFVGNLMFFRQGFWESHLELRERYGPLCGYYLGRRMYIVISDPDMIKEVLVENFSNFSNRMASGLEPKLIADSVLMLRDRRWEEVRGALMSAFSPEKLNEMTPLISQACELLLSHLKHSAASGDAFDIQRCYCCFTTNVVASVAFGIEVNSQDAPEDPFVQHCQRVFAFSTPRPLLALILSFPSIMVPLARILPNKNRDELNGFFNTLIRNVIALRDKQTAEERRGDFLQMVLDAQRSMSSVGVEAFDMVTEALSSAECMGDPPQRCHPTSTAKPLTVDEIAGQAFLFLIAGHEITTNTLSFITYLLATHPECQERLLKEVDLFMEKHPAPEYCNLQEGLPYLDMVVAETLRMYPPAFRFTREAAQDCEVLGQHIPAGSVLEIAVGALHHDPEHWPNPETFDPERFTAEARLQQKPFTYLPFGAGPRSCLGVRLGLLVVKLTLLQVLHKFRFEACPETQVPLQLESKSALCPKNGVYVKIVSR
Protocol: Under urethan anesthesia, […] of arterial blood from Okamoto-Aoki spontaneously hypertensive rats (SHR) (Taconic Farms, Germantown, NY) between 19 and 24 weeks in age is collected in one ml of 3.2% sodium citrate in a polystyrene tube. The blood is diluted with 3 ml of cold saline and centrifuged at room temperature for 15 minutes at 460xg. The platelet rich plasma (PRP) is separated. The platelets are isolated by centrifuging the PRP for 10 minutes at 1060xg and are washed in 4 ml of cold oxygenated Krebs phosphate buffer, pH 7.4. The chilled platelets, recovered from centrifuging at 800xg for 10 minutes, are resuspended in oxygenated Krebs phosphate buffer and diluted to contain 4.5-6.0 x 10⁴ platelets/µ1. The inhibition of thromboxane (TX) formation is studied by determining the concentration of thromboxane B₂ (TXB₂), the stable hydrolysis product of TXA₂. Assay samples, prepared on ice, contain 200 µ1 platelet suspension, 50 µ1 saline, and 50 µ1 vehicle (saline) or drug under study. The samples are incubated for 10 minutes at 37 °C in a metabolic shaker. The reaction is terminated by immersing the tubes in an ice bath and adding 50 µl of 0.5M citric acid. The samples are centrifuged for 10 minutes in a refrigerated centrifuge and the supernatants thus obtained are decanted and stored at -20 °C. The TXB₂ content for each sample is determined by a direct radioimmunoassay (RIA) utilizing a TXB₂ specific RIA kit purchased from New England Nuclear, Boston, MA and expressed as pg TXB₂ formed per minute per sample, from which the percent inhibition of TXB₂ formation is calculated.

Row | inhibition at 100 µM [3] | Compound | responders at 10 mg/kg [1] | responders at 10 mg/kg [2]
1 | – | Cc1cccc(NCCCn2ccnc2)n1 [Example 10, N-[3-(1H-Imidazol-1-yl)propyl]-6-methyl-2-pyridinamine,(E)-2-butenedioate (2:3)] | 50% | 0%
2 | 98% | N#Cc1ccc(-c2cccc(C(F)(F)F)c2)nc1NCCCn1ccnc1 [Example 18, 2-[[3-(1H-Imidazol-1-yl)propyl]amino]-6-[3-(trifluoromethyl)phenyl]-3-pyridinecarbonitrile] | – | –
3 | 90% | c1cnc2nc(NCCCn3ccnc3)ccc2c1 [Example 27, N-[3-(1H-Imidazol-1-yl)propyl]-1,8-naphthyridin-2-amine,(E)-2-butenedioate (1:2)] | – | –
4 | 100% | c1ccc(-c2cc(NCCCn3ccnc3)nc3ccccc23)cc1 [Example 44, N-[3-(1H-Imidazol-1-yl)propyl]-4-phenyl-2-quinolinamine] | – | –
5 | 92% | N#Cc1ccc(NCCCn2ccnc2)nc1 [Example 45, 6-[[3-(1H-Imidazol-1-yl)propyl]amino]-3-pyridinecarbonitrile] | – | –
6 | 80% | NC(=O)c1ccc(NCCCn2ccnc2)nc1 [Example 46, 6-[[3-(1H-Imidazol-1-yl)propyl]amino]-3-pyridinecarboxamide] | – | –
7 | 91% | Clc1cccc(NCCCn2ccnc2)n1 [Example 47, 6-Chloro-N-[3-(1H-imidazol-1-yl)propyl]-2-pyridinamine] | – | –
8 | 89% | Cc1cccc2c(-c3ccccc3)cc(NCCCn3ccnc3)nc12 [Example 51, N-[3-(1H-Imidazol-1-yl)propyl]-8-methyl-4-phenyl-2-quinolinamine] | – | –
9 | 85% | N#Cc1ccc(-c2ccncc2)nc1NCCCn1ccnc1 [Example 52, 2-[[3-(1H-Imidazol-1-yl)propyl]amino]-6-(4-pyridinyl)-3-pyridinecarbonitrile] | – | –
10 | 95% | c1ccc(-n2nc3ccc(NCCCn4ccnc4)nc3n2)cc1 [Example 56, N-[3-(1H-Imidazol-1-yl)propyl]-2-phenyl-2H-1,2,3-triazolo[4,5-b]pyridin-5-amine] | – | –
11 | 94% | O=[N+]([O-])c1ccc(Cl)nc1NCCCn1ccnc1 [Example 57, 6-Chloro-N-[3-(1H-imidazol-1-yl)propyl]-3-nitro-2-pyridinamine, monohydrochloride] | – | –
12 | 83% | CC(=O)N(CCCn1ccnc1)c1ccc([N+](=O)[O-])cn1 [Example 58, N-[3-(1H-Imidazol-1-yl)propyl]-N-(5-nitro-2-pyridinyl)acetamide] | – | –
13 | 100% | N#Cc1ccc(NCCCn2ccnc2)nc1-c1cccc(C(F)(F)F)c1 [Example 71, 6-[[3-(1H-Imidazol-1-yl)propyl]amino]-2-[3-(trifluoromethyl)phenyl]-3-pyridinecarbonitrile, (E)-2-butenedioate (1:1)] | – | –
14 | 90% | CC(=O)N(CCCn1ccnc1)c1cc(C)c2ccccc2n1 [Example 83, N-[3-(1H-Imidazol-1-yl)propyl]-N-(4-methyl-2-quinolinyl)acetamide,monoacetate] | – | –
15 | – | Cc1ccc(C#N)c(NCC(C)Cn2ccnc2)n1 (stereo not drawn) [Example 84, 2-[[3-(1H-Imidazol-1-yl)-2-methylpropyl]amino] 6-methyl-3-pyridinecarbonitrile, dihydrochloride] | 83.3% | 50%
16 | – | Cc1ccc(C#N)c(NCCC(C)n2ccnc2)n1 (stereo not drawn) [Example 85, 2-[[3-(1H-Imidazol-1-yl)butyl]amino]-6-methyl-3-pyridinecarbonitrile, dihydrochloride] | 83.3% | 33.3%
17 | 98% | CC(CCNc1nc2ccccc2c2ccccc12)n1ccnc1 (stereo not drawn) [Example 89, N-[3-(1H-Imidazol-1-yl)butyl]-6-phenanthridinamine] | – | –
18 | 81% | Cc1ccc(C#N)c(NCc2cccnc2)n1 [Example 91, 6-Methyl-2-[(3-pyridinylmethyl)amino]-3-pyridinecarbonitrile] | – | –
19 | 86% | Cc1ccc(C#N)c(NCc2ccncc2)n1 [Example 93, 6-Methyl-2-[(4-pyridinylmethyl)amino]-3-pyridinecarbonitrile] | – | –
20 | – | Cc1cc(NCCc2cccnc2)nc2ccccc12 [Example 95, 4-Methyl-N-[2-(3-pyridinyl)ethyl]-2-quinolinamine,dihydrochloride] | 66.7% | 16.7%
21 | – | Cc1ccc(C#N)c(NCCc2ccncc2)n1 [Example 97, 6-Methyl-2-[[2-(4-pyridinyl)ethyl]amino]-3-pyridinecarbonitrile, dihydrochloride] | 50% | 0%
22 | 97% | Cc1cc(C)c2ccc(NCCCCc3cccnc3)nc2n1 [Example 109, 5,7-Dimethyl-N-[4-(3-pyridinyl)butyl]-1,8-naphthyridin-2-amine,(E)-2-butenedioate (1:2)] | – | –
23 | 99% | c1ccc(-c2cc(NCCCCc3cccnc3)nc3ccccc23)cc1 [Example 110, 4-Phenyl-N-[4-(3-pyridinyl)butyl]-2-quinolinamine] | – | –
24 | 85% | Cc1cccc2c(-c3ccccc3)cc(NCCCCc3cccnc3)nc12 [Example 111, 8-Methyl-4-phenyl-N-[4-(3-pyridinyl)butyl]-2-quinolinamine] | – | –
25 | 88% | O=[N+]([O-])c1cccnc1NCCCCc1ccncc1 [compound 100] | – | –

Row | Compound | inhibition at 100 µM [3] | responders at 10 mg/kg [1] | responders at 10 mg/kg [2]
26 | CC(=O)c1cc(C#N)c(NCCCn2ccnc2)nc1C [Example 12, 5-Acetyl-2-[[3-(1H-Imidazol-1-yl)propyl]amino]-6-methyl-3-pyridinecarbonitrile] | 96% | 66.7% | 16.7%
27 | Cc1cc(C)c2ccc(NCCCn3ccnc3)nc2n1 [Example 24, N-[3-(1H-Imidazol-1-yl)propyl]-5,7-dimethyl-1,8-naphthyridin-2-amine, (E)-2-butenedioate (1:2)] | 93% | 100% | 16.7%
28 | Cc1cc(NCCCn2ccnc2)nc2nc(N)ccc12 [Example 34, N²-[3-(1H-Imidazol-1-yl)propyl]-4-methyl-1,8-naphthyridine-2,7-diamine] | 98% | 66.7% | 50%
29 | Cc1ccc2ccc(NCCCn3ccnc3)nc2n1 [Example 38, N-[3-(1H-Imidazol-1-yl)propyl]-7-methyl-1,8-naphthyridin-2-amine,(E)-2-butenedioate (1:2)] | 98% | 66.7% | 33.3%
30 | Cc1nccc2nc(NCCCn3ccnc3)ccc12 [Example 40, N-[3-(1H-Imidazol-1-yl)propyl]-5-methyl-1,6-naphthyridin-2-amine,(E)-2-butenedioate (2:3)] | 95% | 50% | 33.3%
